How the values were obtained:
Type in all cases: cell-based
HIV-2 = assay: MT4 cell assay, antiviral HIV activity (propidium iodide); conditions: Human immunodeficiency virus 2, Virus Type HIV-2, read-out: IC50 (nM) Range
[1] = system: isogenic HIV-1 RT mutant virus E138K; assay: HeLa cell assay (HIV-LTR β-galactosidase reporter); conditions: Human immunodeficiency virus 1, HeLa, read-out: IC50 (nM) Range
How it was run: (§1)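 HeLa-CD4-LTR-β-gal cells, seeded overnight, were infected with isogenic recombinant HXB2 RT-mutant virus (50 to 70 total RLUs per well, DEAE-dextran) for 1.5 to 2 hours. Five-fold compound titrations (2 μM to 1 pM final, 0.1% DMSO) followed, with 72 h at 37° C. IC50 is chemiluminescent β-gal signal inhibition versus untreated controls.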

[2] = system: isogenic HIV-1 RT mutant virus G190E; assay: HeLa cell assay (HIV-LTR β-galactosidase reporter); conditions: Human immunodeficiency virus 1, HeLa, read-out: IC50 (nM) Range
How it was run: as §1

[3] = system: isogenic HIV-1 RT mutant virus K101E; assay: HeLa cell assay (HIV-LTR β-galactosidase reporter); conditions: Human immunodeficiency virus 1, HeLa, read-out: IC50 (nM) Range
How it was run: as §1

[4] = system: isogenic HIV-1 RT mutant virus K103N/L1001; assay: HeLa cell assay (HIV-LTR β-galactosidase reporter); conditions: Human immunodeficiency virus 1, HeLa, read-out: IC50 (nM) Range
How it was run: as §1

[5] = system: isogenic HIV-1 RT mutant virus V106A; assay: HeLa cell assay (HIV-LTR β-galactosidase reporter); conditions: Human immunodeficiency virus 1, HeLa, read-out: IC50 (nM) Range
How it was run: as §1

[6] = system: isogenic HIV-1 RT mutant virus Y188C; assay: HeLa cell assay (HIV-LTR β-galactosidase reporter); conditions: Human immunodeficiency virus 1, HeLa, read-out: IC50 (nM) Range
How it was run: as §1

Cc1cc(S(N)(=O)=O)ccc1NC(=O)COc1ccc(Cl)cc1C(=O)c1cc(F)cc(F)c1 [Compound 62]
IC50 (HIV-2): 1000 to 3000 nM
IC50 [1]: < 10 nM
IC50 [2]: < 10 nM
IC50 [3]: < 10 nM
IC50 [4]: < 10 nM
IC50 [5]: 11 to 100 nM
IC50 [6]: < 10 nM

Cc1cc(S(N)(=O)=O)ccc1NC(=O)COc1ccc(Cl)cc1C(=O)c1cc(F)cc(C(F)(F)F)c1 [Compound 78]
IC50 [1]: < 10 nM
IC50 [2]: < 10 nM
IC50 [3]: < 10 nM
IC50 [4]: < 10 nM
IC50 [5]: 11 to 100 nM
IC50 [6]: < 10 nM

Cc1cc2nc[nH]c2cc1NC(=O)COc1ccc(Cl)cc1C(=O)c1cc(F)cc(C(F)(F)F)c1 [Compound 239]
IC50 [1]: < 10 nM
IC50 [2]: < 10 nM
IC50 [3]: < 10 nM
IC50 [4]: < 10 nM
IC50 [5]: 11 to 100 nM
IC50 [6]: < 10 nM

Cc1cc(OCCCS(N)(=O)=O)ccc1NC(=O)COc1ccc(Cl)cc1C(=O)c1cc(F)cc(C(F)(F)F)c1 [Compound 257]
IC50 [1]: < 10 nM
IC50 [2]: < 10 nM
IC50 [3]: < 10 nM
IC50 [4]: < 10 nM
IC50 [5]: 11 to 100 nM
IC50 [6]: < 10 nM

Cc1cc(S(N)(=O)=O)ccc1NC(=O)COc1ccc(Cl)cc1C(=O)c1cccc(C#N)c1 [Compound 448]
IC50 (HIV-2): 1000 to 3000 nM
IC50 [1]: < 10 nM
IC50 [2]: < 10 nM
IC50 [3]: < 10 nM
IC50 [4]: < 10 nM
IC50 [5]: 11 to 100 nM
IC50 [6]: < 10 nM

Cc1cc2cn[nH]c2cc1NC(=O)COc1ccc(Cl)cc1C(=O)c1cccc(C#N)c1 [Compound 453]
IC50 [3]: < 10 nM
IC50 [5]: 101 to 1000 nM
IC50 [6]: < 10 nM
